# According to patent US20200181117A1, “SUBSTITUTED 3-HETEROARYLOXY-1H-PYRAZOLES AND SALTS THEREOF AND THEIR USE AS HERBICIDAL ACTIVE SUBSTANCES” (BAYER CROPSCIENCE AKTIENGESELLSCHAFT, priority 2017, published 2020):
# Legend:
# Assay type in all cases: in vivo
# Stellaria media [1] = experiment: Pre-emergence herbicidal action; settings: 1280 g/ha, scored visually after about 3 weeks vs untreated controls
# Source text: (§1) Pre-Emergence Herbicidal Action and Crop Plant Compatibility Seeds of monocotyledonous and dicotyledonous weed plants and crop plants were placed in plastic or wood fiber pots and covered with soil. The compounds of the invention, formulated in the form of wettable powders (WP) or as emulsion concentrates (EC), were then applied onto the surface of the covering soil as aqueous suspension or emulsion with addition of 0.5% additive at a water application rate of 600 l/ha (converted). After the treatment, the pots were placed in a greenhouse and kept under good growth conditions for the test plants. After about 3 weeks, the effect of the preparations was scored visually in comparison with untreated controls as percentages. For example, 100% activity=the plants have died, 0% activity=like control plants. Tables C1 to C14 below show the effects of selected compounds of the general formula (I) according to Table I on various harmful plants and an application rate corresponding to 1280 g/ha, which were obtained by the experimental procedure mentioned above.
# Veronica persica [2] = experiment: Pre-emergence herbicidal action; settings: 1280 g/ha, scored visually after about 3 weeks vs untreated controls
# Source text: as §1
# Setaria viridis [3] = experiment: Pre-emergence herbicidal action; settings: 1280 g/ha, scored visually after about 3 weeks vs untreated controls
# Source text: as §1
# Alopecurus myosuroides [4] = experiment: Pre-emergence herbicidal action; settings: 1280 g/ha, scored visually after about 3 weeks vs untreated controls
# Source text: as §1
# Viola tricolor [5] = experiment: Pre-emergence herbicidal action; settings: 1280 g/ha, scored visually after about 3 weeks vs untreated controls
# Source text: as §1
# Amaranthus retroflexus [6] = experiment: Pre-emergence herbicidal action; settings: 1280 g/ha, scored visually after about 3 weeks vs untreated controls
# Source text: as §1
# Polygonum convolvulus [7] = experiment: Pre-emergence herbicidal action; settings: 1280 g/ha, scored visually after about 3 weeks vs untreated controls
# Source text: as §1
# Abutilon theophrasti [8] = experiment: Post-emergence herbicidal action; settings: 1280 g/ha, rated visually after about 3 weeks vs untreated controls
# Experimental: (§2) A. Post-Emergence Herbicidal Action and Crop Plant Compatibility Seeds of monocotyledonous and dicotyledonous weeds and crop plants were placed in sandy loam in plastic or wood-fiber pots, covered with soil and cultivated in a greenhouse under controlled growth conditions. 2 to 3 weeks after sowing, the test plants were treated at the one-leaf stage. The compounds of the invention, formulated in the form of wettable powders (WP) or as emulsion concentrates (EC), were then sprayed onto the green parts of the plants as aqueous suspension or emulsion with addition of 0.5% additive at a water application rate of 600 l/ha (converted). After the test plants had been kept in the greenhouse under optimum growth conditions for about 3 weeks, the activity of the preparations was rated visually in comparison to untreated controls. For example, 100% activity=the plants have died, 0% activity=like control plants. Tables B1 to B15 below show the effects of selected compounds of the general formula (I) according to Table I on various harmful plants and an application rate corresponding to 1280 g/ha, which were obtained by the experimental procedure mentioned above.
# Veronica persica [9] = experiment: Post-emergence herbicidal action; settings: 1280 g/ha, rated visually after about 3 weeks vs untreated controls
# Experimental: as §2
# Amaranthus retroflexus [10] = experiment: Post-emergence herbicidal action; settings: 1280 g/ha, rated visually after about 3 weeks vs untreated controls
# Experimental: as §2
# Abutilon theophrasti [11] = experiment: Pre-emergence herbicidal action; settings: 1280 g/ha, scored visually after about 3 weeks vs untreated controls
# Source text: as §1
# Echinochloa crus-galli = experiment: Pre-emergence herbicidal action; settings: 1280 g/ha, scored visually after about 3 weeks vs untreated controls
# Source text: as §1
# Stellaria media [12] = experiment: Post-emergence herbicidal action; settings: 1280 g/ha, rated visually after about 3 weeks vs untreated controls
# Experimental: as §2
# Setaria viridis [13] = experiment: Post-emergence herbicidal action; settings: 1280 g/ha, rated visually after about 3 weeks vs untreated controls
# Experimental: as §2
# Alopecurus myosuroides [14] = experiment: Post-emergence herbicidal action; settings: 1280 g/ha, rated visually after about 3 weeks vs untreated controls
# Experimental: as §2
# Viola tricolor [15] = experiment: Post-emergence herbicidal action; settings: 1280 g/ha, rated visually after about 3 weeks vs untreated controls
# Experimental: as §2
# Polygonum convolvulus [16] = experiment: Post-emergence herbicidal action; settings: 1280 g/ha, rated visually after about 3 weeks vs untreated controls
# Experimental: as §2
# Matricaria inodora = experiment: Pre-emergence herbicidal action; settings: 1280 g/ha, scored visually after about 3 weeks vs untreated controls
# Source text: as §1
# Avena fatua = experiment: Pre-emergence herbicidal action; settings: 1280 g/ha, scored visually after about 3 weeks vs untreated controls
# Source text: as §1
# Pharbitis purpurea = experiment: Post-emergence herbicidal action; settings: 1280 g/ha, rated visually after about 3 weeks vs untreated controls
# Experimental: as §2
SMILES,herbicidal activity on Stellaria media (Stellaria media [1]) [%],herbicidal activity on Veronica persica (Veronica persica [2]) [%],herbicidal activity on Setaria viridis (Setaria viridis [3]) [%],herbicidal activity on Alopecurus myosuroides (Alopecurus myosuroides [4]) [%],herbicidal activity on Viola tricolor (Viola tricolor [5]) [%],herbicidal activity on Amaranthus retroflexus (Amaranthus retroflexus [6]) [%],herbicidal activity on Polygonum convolvulus (Polygonum convolvulus [7]) [%],herbicidal activity on Abutilon theophrasti (Abutilon theophrasti [8]) [%],herbicidal activity on Veronica persica (Veronica persica [9]) [%],herbicidal activity on Amaranthus retroflexus (Amaranthus retroflexus [10]) [%],herbicidal activity on Abutilon theophrasti (Abutilon theophrasti [11]) [%],herbicidal activity on Echinochloa crus-galli (Echinochloa crus-galli) [%],herbicidal activity on Stellaria media (Stellaria media [12]) [%],herbicidal activity on Setaria viridis (Setaria viridis [13]) [%],herbicidal activity on Alopecurus myosuroides (Alopecurus myosuroides [14]) [%],herbicidal activity on Viola tricolor (Viola tricolor [15]) [%],herbicidal activity on Polygonum convolvulus (Polygonum convolvulus [16]) [%],herbicidal activity on Matricaria inodora (Matricaria inodora) [%],herbicidal activity on Avena fatua (Avena fatua) [%],herbicidal activity on Pharbitis purpurea (Pharbitis purpurea) [%]
Cc1c(Sc2cccc(C(F)(F)F)c2)c(Oc2ncccn2)nn1C [Example I-142],90,90,100,80,100,90,100,80,80,90,–,–,–,–,–,–,–,–,–,–
Cn1cc(Sc2ccccc2)c(Oc2ncc(Cl)cn2)n1 [Example I-120],100,100,–,90,100,80,80,–,80,80,100,100,90,80,90,100,100,–,–,–
CCc1c(Sc2ccc(Cl)cc2)c(Oc2ncccn2)nn1C [Example I-058],90,–,–,–,80,100,–,–,90,80,–,–,100,–,–,–,–,–,–,–
Cn1cc(Sc2ccc(F)cc2)c(Oc2ncccn2)n1 [Example I-032],–,90,–,–,–,80,–,–,90,90,–,–,100,–,–,–,90,90,–,–
Cn1cc(Sc2ccccc2)c(Oc2ncccn2)n1 [Example I-067],90,100,100,90,100,100,90,–,100,–,90,90,90,–,–,80,90,100,–,–
Cc1c(Sc2ccc(F)cc2)c(Oc2ncccn2)nn1C [Example I-087],–,100,100,–,100,100,90,80,100,100,100,80,100,90,90,100,100,90,80,80
